These results are taken from PubChem BioAssay (NCI).

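All cell lines were grown in 96-well plates and treated with compound for 48 hours. TGI: concentration producing complete growth inhibition.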

Among the test systems are SN12C renal; M14 melanoma; OVCAR-8 ovarian; CAKI-1 renal; SK-MEL-5 melanoma; NCI-H460 lung; SW-620 colon; MDA-N; SNB-75 CNS; MDA-MB-231 breast.
Common to all, as to assay: inhibition of tumour cell growth, NCI panel, 48 h

Consider `COP(=O)(OC)C(Nc1ccc(Cc2ccc(NC(c3ccco3)P(=O)(OC)OC)cc2)cc1)c1ccco1` (centres undefined), for which the TGI with SN12C renal is greater than 100 µM; with M14 melanoma, greater than 100 µM; with OVCAR-8 ovarian it was greater than 100 µM; in the test on CAKI-1 renal, 86.3 µM; with SK-MEL-5 melanoma it was greater than 100 µM; in the test with NCI-H460 lung, greater than 100 µM. Also, the TGI in the test with SW-620 colon was greater than 100 µM; with MDA-N, greater than 100 µM; in the test with SNB-75 CNS, 10.2 µM; with MDA-MB-231 breast it was 41.4 µM.
As to `O=C(CC(=O)Nc1ccccc1)NNC(c1cc(N=Nc2ccc(Br)cc2)ccc1O)P(O)O` (centres undefined), the TGI with SN12C renal is greater than 10 µM; in the test on M14 melanoma it was 3.84 µM; in the test with OVCAR-8 ovarian, greater than 10 µM; in the test on CAKI-1 renal, greater than 10 µM; in the test on SK-MEL-5 melanoma, greater than 10 µM; with NCI-H460 lung it was greater than 10 µM. For the same compound, the TGI with SW-620 colon, in the test with MDA-N, in the test with SNB-75 CNS and in the test on MDA-MB-231 breast was greater than 10 µM throughout.
Regarding `CCOC(=O)C1CCC(=O)N1C(=O)c1ccccc1Cl` (centres undefined), the TGI in the test with SN12C renal, in the test with M14 melanoma, in the test on OVCAR-8 ovarian, with CAKI-1 renal, in the test on SK-MEL-5 melanoma and in the test on NCI-H460 lung was greater than 100 µM each time. The TGI in the test with SW-620 colon, in the test with MDA-N, in the test on SNB-75 CNS and with MDA-MB-231 breast was greater than 100 µM in each case.
Take `CCOC(=O)c1ccc(Nc2nc3ccc(C(F)(F)F)cc3nc2C(=O)OCC)cc1`: the TGI in the test with SN12C renal, with M14 melanoma, in the test with OVCAR-8 ovarian, with CAKI-1 renal, in the test on SK-MEL-5 melanoma and in the test with NCI-H460 lung was greater than 100 µM in each case. For the same compound, the TGI in the test with SW-620 colon, with MDA-N, in the test on SNB-75 CNS and with MDA-MB-231 breast was greater than 100 µM throughout.
As for `c1ccc([P+](CCCCCCCC[P+](c2ccccc2)(c2ccccc2)c2ccccc2)(c2ccccc2)c2ccccc2)cc1`, the TGI with SN12C renal was greater than 100 µM; with M14 melanoma, greater than 100 µM; in the test with OVCAR-8 ovarian, greater than 100 µM; with CAKI-1 renal, greater than 100 µM; in the test on SK-MEL-5 melanoma, 40.7 µM; with NCI-H460 lung, greater than 48.1 µM. In addition, the TGI was greater than 100 µM with SW-620 colon, greater than 100 µM in the test on MDA-N, 7.73 µM in the test on SNB-75 CNS and greater than 100 µM in the test on MDA-MB-231 breast.
Turning to `O=C1C(C(O)(C(F)(F)F)C(F)(F)F)CCC1C(O)(C(F)(F)F)C(F)(F)F` (centres undefined), the TGI in the test with SN12C renal is 30.9 µM; in the test with M14 melanoma, 47 µM; in the test with OVCAR-8 ovarian, greater than 83.6 µM; with CAKI-1 renal, 19.8 µM; with SK-MEL-5 melanoma, 16.2 µM; in the test on NCI-H460 lung, greater than 100 µM. Also, the TGI in the test on SW-620 colon was greater than 100 µM; in the test on MDA-N, greater than 81.8 µM; in the test with SNB-75 CNS it was 7.61 µM; in the test with MDA-MB-231 breast, 17.9 µM.
With `COc1ccc(C2c3cc4c(cc3OC(NCCO)C2C)OCO4)cc1` (centres undefined), the TGI with SN12C renal was 71.7 µM; with M14 melanoma, 84.6 µM; with CAKI-1 renal it was 77.1 µM; in the test on SK-MEL-5 melanoma, 44.7 µM; in the test on NCI-H460 lung it was 63.6 µM; with SW-620 colon, greater than 100 µM. In addition, the results for the TGI in the test on MDA-N, with SNB-75 CNS and in the test with MDA-MB-231 breast were 63.7 µM, 69.5 µM and 63.3 µM, respectively.
For the compound `C[C@H]1[C@H](C)CC[C@]2(C(=O)OC3OC(CO)C(O)C(O)C3O)CC[C@]3(C)C(=CC[C@@H]4[C@@]5(C)C[C@H]6OC(=O)c7cc(O)c(O)c(O)c7-c7c(cc(O)c(O)c7O)C(=O)O[C@@H]6C(CO)(CO)[C@@H]5CC[C@]43C)[C@H]12` (some centres undefined), the TGI was greater than 100 µM with SN12C renal; greater than 100 µM in the test on M14 melanoma; greater than 100 µM with OVCAR-8 ovarian; greater than 84.1 µM in the test on CAKI-1 renal; greater than 100 µM with SK-MEL-5 melanoma; greater than 100 µM in the test with NCI-H460 lung. For the same compound, the TGI with SW-620 colon is greater than 100 µM; in the test on MDA-N, 72.7 µM; in the test on SNB-75 CNS it was greater than 100 µM; in the test on MDA-MB-231 breast, 33 µM.
As to `COc1nc2c(N3CCCC3)nc(N3CCNCC3)nc2nc1NCc1ccccc1`, the TGI in the test with SN12C renal is 4.95 µM; with M14 melanoma, 3.03 µM; in the test on OVCAR-8 ovarian, 10.7 µM; in the test on CAKI-1 renal, 8.8 µM; with SK-MEL-5 melanoma, 2.88 µM; with NCI-H460 lung, 4.91 µM. Moreover, the TGI was found to be 11.1 µM in the test on SW-620 colon, 2.45 µM with MDA-N, 4.19 µM with SNB-75 CNS and 3.72 µM in the test on MDA-MB-231 breast.
As to `Nc1nc(Nc2ccccc2)sc1C(=O)c1ccco1`, the TGI was 39.5 µM in the test on SN12C renal; 36.9 µM in the test on M14 melanoma; 23.2 µM with SK-MEL-5 melanoma; 28 µM in the test on NCI-H460 lung; 67.4 µM in the test on SW-620 colon; 33.9 µM in the test on MDA-N. The figures for the TGI with SNB-75 CNS and in the test with MDA-MB-231 breast were 37.7 µM and 97.7 µM, respectively.
Take `Cc1c(-c2ccccc2)[nH]n(C2=NCCN2)c1=O`: the TGI with M14 melanoma, in the test on OVCAR-8 ovarian, in the test on CAKI-1 renal, in the test on SK-MEL-5 melanoma, with NCI-H460 lung and in the test on SW-620 colon was greater than 100 µM in each case. The TGI in the test on MDA-N, in the test on SNB-75 CNS and in the test on MDA-MB-231 breast was greater than 100 µM each time.
For the compound `CN(C)CCCNC(=O)c1c(O)c2ccccc2n(C)c1=O`, the TGI with SN12C renal, with OVCAR-8 ovarian, in the test on CAKI-1 renal, with SK-MEL-5 melanoma, in the test on NCI-H460 lung and in the test with SW-620 colon was greater than 100 µM throughout. Also, the TGI with MDA-N, in the test with SNB-75 CNS and in the test with MDA-MB-231 breast was greater than 100 µM in each case.
Consider `CC1(C)N=C2C(=O)c3c([nH]c4ccccc34)[C@]3(C)CCC1CC23` (some centres undefined), for which the TGI in the test on SN12C renal, with OVCAR-8 ovarian, in the test on CAKI-1 renal, in the test with SK-MEL-5 melanoma, in the test with NCI-H460 lung and in the test with SW-620 colon was greater than 6.25 µM throughout. Moreover, the TGI in the test with MDA-N, in the test with SNB-75 CNS and in the test with MDA-MB-231 breast was greater than 6.25 µM in each case.
